From ChEMBL document CHEMBL5465560, “Selectivity Literature for EUbOPEN Chemogenomic Library” (2024)
Values belong to the compound of their own block, whether it stands above or below them.

How the values were obtained:
[1] = target: Aurora kinase B (Homo sapiens, UniProt Q96GD4); test: Selectivity interaction (KinomeScan (DiscoverX)) EUB0001049a AURKB; conditions: at 1 µM
[2] = target: Serine/threonine-protein kinase 24 (Homo sapiens) (UniProt Q9Y6E0); test: Selectivity interaction (Kinase panel (Invitrogen)) EUB0000639a STK24; conditions: at 200 nM
[3] = target: Serine/threonine-protein kinase WNK1 (Homo sapiens) (UniProt Q9H4A3); test: Selectivity interaction (ActivX KiNativ screen (kinase selectivity in THP-1 cell lysates)) EUB0000639a WNK1; type: subcellular; conditions: lysate, at 0.2 µM
[4] = target: Tyrosine-protein kinase Srms (Homo sapiens) (UniProt Q9H3Y6); test: Selectivity interaction (Kinase panel (Z-LYTE Assay)) EUB0001632a SRMS; conditions: at 10 µM
[5] = target: Histone-lysine N-methyltransferase KMT5B (Homo sapiens) (UniProt Q4FZB7); test: Selectivity interaction (Methyltransferase screen (radiometric assays, panel of 8 PRMTs, 21 protein lysine methyltransferases, 3 DNA methyltransferases, and one RNA methyltransferase)) EUB0000272b SUV420H1
[6] = target: Tyrosine-protein kinase Lyn (Homo sapiens, UniProt P07948); conditions: at 10 µM
[7] = target: T1, Serine/threonine-protein kinase TAO2 (Homo sapiens) (UniProt Q9UL54); test: Selectivity interaction (KinomeScan (DiscoverX)) EUB0000092b TAOK2; conditions: at 10 µM
T1 sequence (whole entry): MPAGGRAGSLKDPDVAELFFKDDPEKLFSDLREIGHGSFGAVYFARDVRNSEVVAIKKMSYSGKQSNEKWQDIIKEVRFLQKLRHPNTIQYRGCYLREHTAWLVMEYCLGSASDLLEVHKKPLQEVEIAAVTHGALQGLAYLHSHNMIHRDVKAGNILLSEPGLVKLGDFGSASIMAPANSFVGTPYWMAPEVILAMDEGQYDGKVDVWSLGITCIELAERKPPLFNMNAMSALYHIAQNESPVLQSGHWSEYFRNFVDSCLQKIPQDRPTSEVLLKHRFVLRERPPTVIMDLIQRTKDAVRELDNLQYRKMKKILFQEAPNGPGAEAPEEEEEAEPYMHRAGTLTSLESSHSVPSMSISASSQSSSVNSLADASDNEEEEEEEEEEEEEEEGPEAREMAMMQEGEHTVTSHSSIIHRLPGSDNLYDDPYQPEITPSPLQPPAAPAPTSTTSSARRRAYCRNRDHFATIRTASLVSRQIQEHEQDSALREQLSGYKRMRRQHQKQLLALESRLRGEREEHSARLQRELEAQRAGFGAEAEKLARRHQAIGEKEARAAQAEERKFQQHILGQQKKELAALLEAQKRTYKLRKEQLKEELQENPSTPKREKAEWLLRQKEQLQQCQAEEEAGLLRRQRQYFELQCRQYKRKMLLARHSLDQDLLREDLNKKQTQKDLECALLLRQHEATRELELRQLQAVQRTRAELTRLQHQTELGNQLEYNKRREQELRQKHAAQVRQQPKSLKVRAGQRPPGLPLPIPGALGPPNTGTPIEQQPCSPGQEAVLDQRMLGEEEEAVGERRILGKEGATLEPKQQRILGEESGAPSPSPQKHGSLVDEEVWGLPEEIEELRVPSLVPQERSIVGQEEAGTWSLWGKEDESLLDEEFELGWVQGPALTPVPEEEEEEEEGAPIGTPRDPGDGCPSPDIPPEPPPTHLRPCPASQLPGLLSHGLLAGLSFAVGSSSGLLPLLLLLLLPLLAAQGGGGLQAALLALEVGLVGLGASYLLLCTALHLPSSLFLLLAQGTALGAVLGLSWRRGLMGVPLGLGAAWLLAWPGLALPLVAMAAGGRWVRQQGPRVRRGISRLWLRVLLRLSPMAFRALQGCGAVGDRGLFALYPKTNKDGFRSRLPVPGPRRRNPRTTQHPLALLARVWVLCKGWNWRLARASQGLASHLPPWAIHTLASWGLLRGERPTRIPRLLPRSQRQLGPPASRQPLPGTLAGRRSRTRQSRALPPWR

[8] = target: T2, MAP/microtubule affinity-regulating kinase 4 (Homo sapiens) (UniProt Q96L34); test: Selectivity interaction (KinomeScan (DiscoverX)) EUB0000045b MARK4
T2 sequence (whole entry): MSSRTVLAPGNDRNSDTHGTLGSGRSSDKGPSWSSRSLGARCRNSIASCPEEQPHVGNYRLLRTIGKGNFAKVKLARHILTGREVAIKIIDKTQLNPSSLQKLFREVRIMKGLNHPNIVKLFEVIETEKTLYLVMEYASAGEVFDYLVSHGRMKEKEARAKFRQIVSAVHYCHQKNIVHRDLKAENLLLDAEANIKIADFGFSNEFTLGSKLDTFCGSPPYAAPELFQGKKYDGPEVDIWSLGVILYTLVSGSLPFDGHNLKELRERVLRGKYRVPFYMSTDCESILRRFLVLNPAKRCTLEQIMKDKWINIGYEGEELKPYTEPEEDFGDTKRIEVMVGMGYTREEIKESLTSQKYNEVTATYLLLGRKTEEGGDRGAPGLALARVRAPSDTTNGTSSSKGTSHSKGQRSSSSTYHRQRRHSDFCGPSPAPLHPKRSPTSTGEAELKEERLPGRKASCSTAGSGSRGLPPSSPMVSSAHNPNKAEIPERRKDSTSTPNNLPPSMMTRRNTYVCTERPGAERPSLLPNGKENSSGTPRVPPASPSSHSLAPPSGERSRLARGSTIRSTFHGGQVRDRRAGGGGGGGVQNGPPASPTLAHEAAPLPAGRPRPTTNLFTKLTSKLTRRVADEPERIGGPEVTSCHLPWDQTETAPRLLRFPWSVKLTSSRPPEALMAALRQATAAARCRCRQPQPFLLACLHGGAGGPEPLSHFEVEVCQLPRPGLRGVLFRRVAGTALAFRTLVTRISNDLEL

[9] = target: High affinity nerve growth factor receptor (Homo sapiens, UniProt P04629); test: Selectivity interaction (KinomeScan (DiscoverX)) EUB0000045b NTRK1
[10] = target: Serine/threonine-protein kinase 32A (Homo sapiens) (UniProt Q8WU08); test: Selectivity interaction (KinomeScan (DiscoverX)) EUB0000618a STK32A; conditions: at 10 µM
Chain of Serine/threonine-protein kinase 32A (Homo sapiens) (Q8WU08 whole entry): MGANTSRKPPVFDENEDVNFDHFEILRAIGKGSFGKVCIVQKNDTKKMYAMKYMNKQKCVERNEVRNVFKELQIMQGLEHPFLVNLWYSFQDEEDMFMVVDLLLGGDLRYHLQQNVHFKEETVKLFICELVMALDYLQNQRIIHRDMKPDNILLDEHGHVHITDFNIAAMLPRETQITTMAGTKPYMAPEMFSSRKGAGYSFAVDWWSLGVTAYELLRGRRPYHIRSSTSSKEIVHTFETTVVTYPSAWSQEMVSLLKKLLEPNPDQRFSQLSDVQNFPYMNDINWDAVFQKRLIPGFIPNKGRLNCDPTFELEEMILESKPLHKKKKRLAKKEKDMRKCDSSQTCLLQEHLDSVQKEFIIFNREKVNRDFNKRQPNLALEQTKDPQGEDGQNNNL

Chain of High affinity nerve growth factor receptor (P04629 33-796 limits assumed): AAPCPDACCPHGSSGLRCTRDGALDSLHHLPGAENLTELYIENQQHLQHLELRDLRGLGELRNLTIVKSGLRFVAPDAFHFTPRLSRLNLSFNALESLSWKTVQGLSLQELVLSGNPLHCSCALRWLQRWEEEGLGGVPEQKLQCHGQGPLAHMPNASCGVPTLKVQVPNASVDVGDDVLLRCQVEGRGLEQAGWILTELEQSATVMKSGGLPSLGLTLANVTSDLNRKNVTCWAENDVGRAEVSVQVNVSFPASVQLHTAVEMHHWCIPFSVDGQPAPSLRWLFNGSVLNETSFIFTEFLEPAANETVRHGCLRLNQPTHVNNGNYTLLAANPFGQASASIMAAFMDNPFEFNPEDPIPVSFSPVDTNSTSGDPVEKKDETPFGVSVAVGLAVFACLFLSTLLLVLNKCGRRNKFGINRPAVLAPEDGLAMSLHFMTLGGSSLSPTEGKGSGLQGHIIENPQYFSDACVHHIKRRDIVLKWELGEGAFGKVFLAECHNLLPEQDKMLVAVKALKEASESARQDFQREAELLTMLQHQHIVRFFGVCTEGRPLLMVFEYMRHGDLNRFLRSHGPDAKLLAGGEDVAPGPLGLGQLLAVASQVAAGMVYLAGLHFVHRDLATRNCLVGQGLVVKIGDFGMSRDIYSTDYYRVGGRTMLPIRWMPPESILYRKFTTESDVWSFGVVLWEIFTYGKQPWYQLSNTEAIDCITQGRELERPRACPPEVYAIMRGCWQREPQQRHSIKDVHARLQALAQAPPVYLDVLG
Chain of Histone-lysine N-methyltransferase KMT5B (Homo sapiens) (Q4FZB7 whole entry, looked up): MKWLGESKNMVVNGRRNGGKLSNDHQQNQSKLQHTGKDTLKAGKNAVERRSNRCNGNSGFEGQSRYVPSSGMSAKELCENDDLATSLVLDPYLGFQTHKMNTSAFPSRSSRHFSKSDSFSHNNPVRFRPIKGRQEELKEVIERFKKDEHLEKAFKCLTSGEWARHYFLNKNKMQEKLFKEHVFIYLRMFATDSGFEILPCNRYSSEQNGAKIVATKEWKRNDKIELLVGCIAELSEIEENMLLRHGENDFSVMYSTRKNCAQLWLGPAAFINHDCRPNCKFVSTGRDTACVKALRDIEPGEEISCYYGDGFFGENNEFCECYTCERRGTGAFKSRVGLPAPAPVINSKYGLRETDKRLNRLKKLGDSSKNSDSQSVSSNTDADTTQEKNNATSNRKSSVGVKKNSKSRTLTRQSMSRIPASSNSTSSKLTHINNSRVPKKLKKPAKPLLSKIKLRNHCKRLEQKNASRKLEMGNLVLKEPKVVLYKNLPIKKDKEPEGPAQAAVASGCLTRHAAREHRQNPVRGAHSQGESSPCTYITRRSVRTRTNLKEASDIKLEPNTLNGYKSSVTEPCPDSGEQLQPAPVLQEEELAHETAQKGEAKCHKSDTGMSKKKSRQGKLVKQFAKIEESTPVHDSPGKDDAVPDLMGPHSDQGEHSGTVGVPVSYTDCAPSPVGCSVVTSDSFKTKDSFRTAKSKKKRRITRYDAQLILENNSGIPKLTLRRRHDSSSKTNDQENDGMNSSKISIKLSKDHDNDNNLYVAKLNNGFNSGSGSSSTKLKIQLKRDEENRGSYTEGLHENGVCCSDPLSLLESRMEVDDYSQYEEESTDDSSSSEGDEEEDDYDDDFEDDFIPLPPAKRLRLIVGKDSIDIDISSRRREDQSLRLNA
Chain of Tyrosine-protein kinase Lyn (P07948 2-512 limits assumed): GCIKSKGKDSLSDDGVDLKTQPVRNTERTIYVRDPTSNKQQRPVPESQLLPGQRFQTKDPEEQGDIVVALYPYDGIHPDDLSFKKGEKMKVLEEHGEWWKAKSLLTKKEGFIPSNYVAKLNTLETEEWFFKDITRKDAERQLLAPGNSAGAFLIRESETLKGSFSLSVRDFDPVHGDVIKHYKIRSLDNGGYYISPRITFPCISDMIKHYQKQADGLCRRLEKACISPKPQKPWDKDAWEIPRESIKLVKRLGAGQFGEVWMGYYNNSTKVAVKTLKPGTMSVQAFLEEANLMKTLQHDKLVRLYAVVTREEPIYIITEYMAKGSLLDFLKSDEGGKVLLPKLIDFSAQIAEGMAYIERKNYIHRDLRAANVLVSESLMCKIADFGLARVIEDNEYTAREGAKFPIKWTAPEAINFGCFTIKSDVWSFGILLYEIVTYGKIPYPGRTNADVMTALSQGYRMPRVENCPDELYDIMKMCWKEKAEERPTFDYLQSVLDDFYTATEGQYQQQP
Chain of Tyrosine-protein kinase Srms (Homo sapiens) (Q9H3Y6 whole entry): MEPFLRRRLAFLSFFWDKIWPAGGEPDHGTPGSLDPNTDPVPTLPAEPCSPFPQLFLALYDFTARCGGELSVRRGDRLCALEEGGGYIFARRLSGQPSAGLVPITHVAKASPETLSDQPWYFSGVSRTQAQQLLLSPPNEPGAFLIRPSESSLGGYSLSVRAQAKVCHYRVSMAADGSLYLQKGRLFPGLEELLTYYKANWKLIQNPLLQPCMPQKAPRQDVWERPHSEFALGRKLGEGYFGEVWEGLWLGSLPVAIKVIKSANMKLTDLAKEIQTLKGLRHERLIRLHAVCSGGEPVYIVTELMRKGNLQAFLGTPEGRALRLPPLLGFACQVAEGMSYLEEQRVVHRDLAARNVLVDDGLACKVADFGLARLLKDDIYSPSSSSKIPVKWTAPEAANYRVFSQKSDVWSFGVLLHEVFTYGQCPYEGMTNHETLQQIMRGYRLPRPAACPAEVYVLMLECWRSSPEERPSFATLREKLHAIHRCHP
Chain of Aurora kinase B (Q96GD4 whole entry): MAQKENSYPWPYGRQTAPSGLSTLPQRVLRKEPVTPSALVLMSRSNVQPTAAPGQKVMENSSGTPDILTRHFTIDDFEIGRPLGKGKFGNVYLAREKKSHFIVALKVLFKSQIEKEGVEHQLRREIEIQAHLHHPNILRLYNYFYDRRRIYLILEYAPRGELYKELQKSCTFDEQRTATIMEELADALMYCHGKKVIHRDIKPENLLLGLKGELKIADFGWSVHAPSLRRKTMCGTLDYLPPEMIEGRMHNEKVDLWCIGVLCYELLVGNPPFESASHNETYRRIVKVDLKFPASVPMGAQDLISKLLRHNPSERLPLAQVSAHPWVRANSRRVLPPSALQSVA
Chain of Serine/threonine-protein kinase 24 (Homo sapiens) (Q9Y6E0 whole entry, looked up): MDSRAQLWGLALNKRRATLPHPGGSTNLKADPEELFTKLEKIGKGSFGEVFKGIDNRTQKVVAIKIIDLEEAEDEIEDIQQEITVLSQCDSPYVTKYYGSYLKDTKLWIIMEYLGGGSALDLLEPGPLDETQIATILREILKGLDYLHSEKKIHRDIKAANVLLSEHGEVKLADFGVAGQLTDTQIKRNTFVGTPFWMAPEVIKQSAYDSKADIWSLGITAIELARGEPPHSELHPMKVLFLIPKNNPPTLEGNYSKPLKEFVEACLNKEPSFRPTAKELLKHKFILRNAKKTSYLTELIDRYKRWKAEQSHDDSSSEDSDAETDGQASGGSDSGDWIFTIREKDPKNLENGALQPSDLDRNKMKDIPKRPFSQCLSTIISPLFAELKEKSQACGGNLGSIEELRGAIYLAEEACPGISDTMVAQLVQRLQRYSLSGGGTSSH

Structure (SMILES): COc1cc(Nc2nc(C)cc(-c3cnn4nc(OC)ccc34)n2)cc(C(F)(F)F)c1
- % of control [1]: 85%

- % of inhibition [2]: 23.2%
- % of inhibition [3]: -12%
Structure (SMILES): CC[C@@H]1[C@H](F)C(=O)N[C@@H]1COc1nccc2cc(C(N)=O)c(OC)cc12 [ZIMLOVISERTIB]

- % of control [4]: -3.87%
Structure (SMILES): Cn1cc(-n2cnc3c(NCc4nc5cc(Cl)c(Cl)cc5[nH]4)nc(N4CCOCC4)nc32)cn1

- % of activity ([5]; at 1 µM): 103%
- % of activity ([5]; at 10 µM): 103%
Structure (SMILES): Cc1cc(C)cc([C@H]2c3cc(C)ccc3NC(=O)CN2C(=O)c2ccc(Br)s2)c1

- % of control [6]: 100%
Structure (SMILES): CCN(CC)CCCCNc1ncc2cc(-c3cc(OC)cc(OC)c3)c(NC(=O)NC(C)(C)C)nc2n1

Structure (SMILES): CCC(=O)N1CCN(c2ccc(-n3c(=O)ccc4cnc5ccc(-c6cnc7ccccc7c6)cc5c43)cc2C(F)(F)F)CC1
- % of control [7]: 84%

Structure (SMILES): C=CC(=O)Nc1cc(-n2c(=O)ccc3cnc4ccc(-c5ccc(NS(C)(=O)=O)cc5)cc4c32)ccc1C
- % of control ([8]; at 1 µM): 80%
- % of control ([8]; at 10 µM): 76%
- % of control ([9]; at 1 µM): 100%
- % of control ([9]; at 10 µM): 100%

Structure (SMILES): O[C@H]1CC[C@H](Nc2ncc3nc(Nc4c(F)cc(F)cc4F)n([C@H]4CCOC4)c3n2)CC1
- % of control [10]: 62%
